US6294555A, “1-[(1-Substituted-4-piperidinyl)methyl]-4-piperidine derivative, process for producing the same, medicinal compositions containing the same and intermediates of these compounds” (Dainippon Pharmaceutical Co., Ltd., priority 1998, dated 2001)
One block for each molecule: values may come before it.

Columns and labels:
dopamine D2 receptors = conditions: background art; cited from earlier work
[1] = background art; cited from earlier work
5-HT4 receptors = conditions: background art, J. Pharmacol. Exp. Ther., 1990, 252, 1378; 1991, 257, 781; cited from earlier work
[2] = biological target: T1, Serotonin 4 (5-HT4) Receptors (Cavia porcellus, UniProt O70528); assay: Binding Assay on Serotonin 4 (5-HT4) Receptors ([3H]-GR113808, striatum membrane fractions); set-up: species or system guinea pig (Std-Hartley); conditions: 50% inhibition of specific binding of 0.1 nM [3H]-GR113808; 37° C., 30 min; test compounds are fumarates except numbers marked ** (62, 72, 74: free bases)
T1 construct: the striatum was dissected; from tissue; host or cells: guinea pig (Std-Hartley) brain striatum, membrane fractions
T1 sequence (O70528 whole entry): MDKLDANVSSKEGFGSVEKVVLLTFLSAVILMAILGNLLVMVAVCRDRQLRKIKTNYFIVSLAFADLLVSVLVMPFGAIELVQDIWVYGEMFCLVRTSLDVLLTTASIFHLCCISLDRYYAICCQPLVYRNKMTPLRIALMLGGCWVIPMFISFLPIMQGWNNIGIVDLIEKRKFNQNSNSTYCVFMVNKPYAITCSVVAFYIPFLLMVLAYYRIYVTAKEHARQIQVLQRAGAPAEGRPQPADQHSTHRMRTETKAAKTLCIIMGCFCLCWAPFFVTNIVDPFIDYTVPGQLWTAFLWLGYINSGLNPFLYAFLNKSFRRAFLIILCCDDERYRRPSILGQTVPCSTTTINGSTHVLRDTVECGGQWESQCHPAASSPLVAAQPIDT
Protocol: Std-Hartley guinea pigs weighing 300-400 g were decapitated, and the brain thereof was immediately taken out, and the striatum was dissected. To the tissue thus obtained was added 15-times volume of Hepes buffer (50 mM, pH7.4, 4° C.), homogenized in a Teflon homogenizer, and centrifuged at 48,000×g at 4° C. for 15 minutes. The pellet was suspended in the same Hepes buffer in a volume of 1 ml per 30 mg of the wet tissues to give receptor membrane fractions.
The reaction was terminated by rapid vacuum filtration and washing (3×4 ml) with ice-cold 50 mM Tris-HCl buffer (pH 7.7) through Whatman GF/B filter paper using a Brandel cell harvester. Prior to the filtration, the filter to be used was presoaked in a 0.1% solution of polyethylenimine for one hour. The radioactivity on the filter was determined with by ACS-II scintillation cocktail by a liquid scintillation counter.

[3] = test system: Mice of Std-ddY strain (evacuation); assay: Assay on Evacuation in Mice (fecal pellets, oral); type: in vivo, mouse (Std-ddY, male); set-up: key: -: Inactive; +: Moderately stimulated (P<0.05); ++: Markedly stimulated (p<0.01); conditions: 1 mg/kg oral; fecal pellets at 30, 60 and 120 minutes; Dunnett's test; fumarates except numbers marked ** (25, 86: free bases)
Protocol: Male mice of Std-ddY strain weighing 25-30 g were used. Free access to food and water was allowed up to the beginning of the procedure.
The mice (each group: five mice) were placed in a mesh bottom cage for fasting, and they were allowed for acclimation to new environment for about one hour prior to the start of the experiment. A test compound, which was previously suspended in the 0.5% tragacanth solution, was administered orally to the mice at a dose of 1 mg/kg. The fecal pellets were counted and collected at 30, 60 and 120 minutes after the treatment of a test compound, and weighed.
The statistical judgment of efficacy was carried out between the control group and the treated group, and determined by Dunnett's test.

[4] = Acute Toxicity (intravenous, lethality over 7 days); conditions: mouse, in vivo, mice, observed for 7 days, read-out: 50% lethal dose (LD50)
Protocol: Male mice of Std-ddY strain weighing 25-30 g were used in a group of 5 animals. A test compound was suspended in physiological saline solution or 1% lactose solution and administered intravenously to the mice. […] The LD50 doses of the compounds of Examples 1, 10, 12, 18, 20, 21, 25 and 26 were all more than 100 mg/kg.

SMILES: COc1cc(N)c(Cl)cc1C(=O)N[C@H]1CCN(CCCOc2ccc(F)cc2)C[C@H]1OC (relative stereo) [Comp. A, cis-4-amino-5-chloro-N-[1-[3-(4-fluorophenoxy)-propyl]-3-methoxy-4-piperidinyl]-2-methoxybenzamide]
inhibitory effects on the central nervous system / dopamine D2 antagonism (dopamine D2 receptors): inhibitory effects on the central nervous system based on the antagonistic activity against dopamine D2 receptors
side effects on the heart [1]: side effects on the heart
gastrointestinal motility (5-HT4 receptors): enhance the gastrointestinal motility by stimulating 5-HT4 receptors

SMILES: COc1cc(N)c(Cl)cc1C(=O)NC1CCN(CC2CCN(C(=O)N(C)C)CC2)CC1 [Example 1, 4-amino-5-chloro-N-[1-(1-dimethylcarbamoyl-4-piperidinylmethyl)-4-piperidinyl]-2-methoxybenzamide]
IC50 [2]: 11.9 nM
Effect (evacuation) [3]: ++
LD50 at 168 h [4]: > 100 mg/kg

SMILES: COc1cc(N)c(Cl)cc1C(=O)NC1CCN(CC2CCN(C(=S)N(C)C)CC2)CC1 [Example 10, 4-amino-5-chloro-N-[1-(1-dimethylthiocarbamoyl-4-piperidinylmethyl)-4-piperidinyl]-2-methoxybenzamide]
IC50 [2]: 8 nM
Effect (evacuation) [3]: ++
LD50 at 168 h [4]: > 100 mg/kg

SMILES: COc1cc(N)c(Cl)cc1C(=O)NC1CCN(CC2CCN(C(=O)N3CCCC3)CC2)CC1 [Example 12, 4-amino-5-chloro-2-methoxy-N-[1-[1-(1-pyrrolidinecarbonyl)-4-piperidinylmethyl]-4-piperidinyl]benzamide]
IC50 [2]: 8.7 nM
Effect (evacuation) [3]: ++
LD50 at 168 h [4]: > 100 mg/kg

SMILES: CN(C)C(=O)N1CCC(CN2CCC(NC(=O)c3cc(Cl)c(N)c4c3OCC4)CC2)CC1 [Example 18, 4-amino-5-chloro-N-[1-(1-dimethylcarbamoyl-4-piperidinylmethyl)-4-piperidinyl]-2,3-dihydrobenzo[b]furan-7-carboxamide]
IC50 [2]: 3.3 nM
Effect (evacuation) [3]: ++
LD50 at 168 h [4]: > 100 mg/kg

SMILES: CN(C)C(=S)N1CCC(CN2CCC(NC(=O)c3cc(Cl)c(N)c4c3OCC4)CC2)CC1 [Example 20, 4-amino-5-chloro-N-[1-(1-dimethylthiocarbamoyl-4-piperidinylmethyl)-4-piperidinyl]-2,3-dihydrobenzo[b]furan-7-carboxamide]
IC50 [2]: 1.3 nM
Effect (evacuation) [3]: ++
LD50 at 168 h [4]: > 100 mg/kg

SMILES: Nc1c(Cl)cc(C(=O)NC2CCN(CC3CCN(C(=O)N4CCCC4)CC3)CC2)c2c1CCO2 [Example 21, 4-amino-5-chloro-N-[1-[1-(1-pyrrolidinecarbonyl)-4-piperidinylmethyl)-4-piperidinyl]-2,3-dihydrobenzo[b]furan-7-carboxamide]
IC50 [2]: 2.4 nM
Effect (evacuation) [3]: ++
LD50 at 168 h [4]: > 100 mg/kg

SMILES: CCOc1cc(N)c(Cl)cc1C(=O)NC1CCN(CC2CCN(C(=O)N(C)C)CC2)CC1 [Example 25, 4-amino-5-chloro-N-[1-(1-dimethylcarbamoyl-4-piperidinylmethyl)-4-piperidinyl]-2-ethoxybenzamide]
IC50 [2]: 4.2 nM
Effect (evacuation) [3]: ++
LD50 at 168 h [4]: > 100 mg/kg

SMILES: COc1cc(N)c(Br)cc1C(=O)NC1CCN(CC2CCN(C(=O)N(C)C)CC2)CC1 [Example 26, 4-amino-5-bromo-N-[1-(1-dimethylcarbamoyl-4-piperidinylmethyl)-4-piperidinyl]-2-methoxybenzamide]
IC50 [2]: 11.5 nM
Effect (evacuation) [3]: +
LD50 at 168 h [4]: > 100 mg/kg

IC50 [2]: 7.7 nM
SMILES: CCOc1cc(N)c(Cl)cc1C(=O)NC1CCN(CC2CCN(C(=O)CCOC)CC2)CC1 [Example 81, 4-amino-5-chloro-2-ethoxy-N-[1-[1-(3-methoxypropionyl)-4-piperidinylmethyl]-4-piperidinyl]benzamide]
Effect (evacuation) [3]: ++

IC50 [2]: 8.3 nM
SMILES: CCC(=O)CN1CCC(CN2CCC(NC(=O)c3cc(Cl)c(N)cc3OC)CC2)CC1 [Example 86]
Effect (evacuation) [3]: ++

SMILES: CCN(CC)CCNC(=O)c1cc(Cl)c(N)cc1OC [metoclopramide]
gastrointestinal motility (5-HT4 receptors): enhance the gastrointestinal motility by stimulating 5-HT4 receptors
